Data: doi:10.1101/2020.02.20.957365v1, “Tree bark scrape fungus: A potential source of laccase for application in bioremediation of non-textile dyes” (biorxiv, 2020)

Tested on: T1, laccase of Aspergillus sp. HB_RZ4
T1 construct: native extracellular enzyme purified from culture supernatant (ammonium sulfate, DEAE-cellulose, Sephadex G-100); about 62 kDa by SDS-PAGE
Test: ABTS oxidation at […] nm, Michaelis-Menten and Lineweaver-Burk
Assay type: biochemical
Settings: apparent Km; ABTS 10-200 mM; assay buffer 100 mM sodium acetate pH 4.0; free enzyme

With `CCn1c(=NN=c2sc3cc(S(=O)(=O)O)ccc3n2CC)sc2cc(S(=O)(=O)O)ccc21` [ABTS, 2,2’-azino-bis (3-ethylbenzothiazoline 6-sulphonic acid)] the Km was 26.8 mM.
